Measurements as given in US9351986B2, “Calicheamicin derivative-carrier conjugates” (priority 2002, dated 2016).
Where “and” joins values, the source holds several entries; their conditions need not be identical. Equal values may be shown once.

What was measured:
[1] = system: CD22− CD33+ HL-60 leukemia cells; assay: Flow cytometry binding to HL-60 leukemia cells; conditions: data not shown
Source text: (§1) Purified human polyclonal IgG1 and IgG4 were also used as negative controls.

CD22 on B cells = assay: Species specificity of CD22 recognition on B cells; format: binding, human, murine, rat, canine, porcine, cynomolgus and rhesus; conditions: data not shown
Source text: as §1

RAMOS B-cell lymphoma = RAMOS B-cell lymphoma xenograft growth; format: in vivo
Source text: In Vivo Cytotoxicity. CMC-544 made by the CMC-544 process was further evaluated in B-cell lymphoma xenografts. In these studies, two B-cell lymphoma tumors, RAMOS and RL, were used. RL lymphoma is a non-Burkitt's NHL-derived cell line whereas RAMOS was originally derived from a Burkitt's lymphoma.

RL NHL xenografts = RL NHL xenografts staged to 300-400 mg in nude mice; format: in vivo; conditions: for MEAN RELATIVE TUMOR GROWTH: tumor mass at Week 3/day 1
Description: Similar studies were carried out using the RL lymphoma model. […] CMC-544 in a dose-dependent manner caused tumors to regress over a 3-week time frame. The minimally effective dose of CMC-544 in the RL lymphoma model was established from statistical analyses of these studies to be 20 μg/kg based on calicheamicin content. There were no deaths in any of these three studies.
The observed anti-tumor efficacy was dose-dependent as expected and there was no difference in the efficacies of either of the two CMC-544 preparations. […] However, it should be emphasized that for each dose of conjugated calicheamicin, the quantity of antibody protein administered in the form of a conjugate was four times higher for CMC-544 made by the CMA-676 process versus that made by the CMC-544 process. Since the calicheamicin content of the targeted conjugate is primarily responsible for causing the anti-tumor effect, it is possible to deliver the required quantity of calicheamicin via the conjugate made by the new procedure using much smaller quantities of the targeting antibody. The increased loading of the conjugate made by the CMC-544 process is, in effect, due to the lack of significant amounts of the low conjugated fraction (LCF).

large RAMOS lymphoma = assay: Large established RAMOS lymphoma xenografts; format: in vivo, nude mice; conditions: days 1, 5 and 9
Description: (§2) The ability of CMC-544 made by the new procedure to inhibit growth of large established B-cell lymphoma xenografts using both the RAMOS and RL lymphoma models was also investigated. The tumors were allowed to grow and staged to 1.5 or 2 g of tumor mass after which CMC-544 or an isotype-matched negative control conjugate (CMA-676) were administered intraperitoneally at the dose of 160 μg/kg of conjugated calicheamicin keeping the original schedule of dosing on days 1, 5 and 9.
The same schedule of dosing was shown earlier to cause long lasting regression of small staged tumors (see Table 6).

RL lymphoma = assay: Large established RL lymphoma xenografts; format: in vivo, mice
Description: as §2
A similar experiment using CMC-544 was carried out in the RL lymphoma model. Intraperitoneal administration of CMC-544 at a dose of 160 μg/kg on a similar schedule as described before caused >90% regression of the pre-existing mass of RL lymphoma within 30 days. […] In a small number of studies not shown here, RL lymphomas that re-grew sporadically after the initial CMC-544-induced regression were retreated with CMC-544 again. […] Thus, the treatment with CMC-544 can be effective against both small and large masses of B-cell lymphomas with the potential for repeat therapy.

Ramos cells [2] = assay: Ramos cell viability, CMC-544 with and without rituximab, 96 hours; format: cell-based; conditions: CMC-544 alone, calicheamicin DMH
Description: After 96 hours, cell viability was measured by propidium iodide exclusion analyzed by flow cytometry. […] The statistical analysis was conducted using the PROBIT procedure in SAS version 8.2.

Ramos cells [3] = assay: Disseminated RAMOS B lymphoma in SCID mice, developing model; format: in vivo; conditions: Table 8; conjugates 160 μg/kg, rituximab 20 mg/kg ip Q4Dx3 from day 3
Description: (§3) Male SCID mice (CB17 SCID), 20-25 g, were injected with […] through the tail vein (0.2 ml). […] For the day 3 treatment schedule, mice were dosed on days 3, 7, and 11. For the day 9 treatment schedule, mice were dosed on days 9, 13 and 17. […] Mice were monitored daily for the presence of hind limb paralysis at which time they were killed. Seven to 10 mice per treatment group were used. The group average survival time (±SD), median, minimum, and maximum survival times were all calculated. The difference in survival distribution between groups was determined by using a nonparametric Log-rank test with significance reported at the 0.05 level. The survival curves were constructed using the Kaplan-Meier method.
The initial study examined the effect of two different dosing schedules on survival times of the SCID mice with the disseminated lymphoma. The first study looked at initiating drug dosing 3 days after the tumor cells were injected intravenously (developing model), while the second study delayed drug dosing until 9 days post tumor cell injection (established model).

Ramos cells [4] = assay: Disseminated RAMOS B lymphoma in SCID mice, established model; format: in vivo
Description: as §3
The initial study examined the effect of two different dosing schedules on survival times of the SCID mice with the disseminated lymphoma. The first study looked at initiating drug dosing 3 days after the tumor cells were injected intravenously (developing model), while the second study delayed drug dosing until 9 days post tumor cell injection (established model). […]

RL B lymphoma xenograft = assay: Subcutaneous RL B lymphoma xenograft, CMC-544 versus rituximab and CHOP; format: in vivo, Balb/c nude mice; conditions: IP, Q4Dx3, 160 μg/kg calicheamicin equivalents
Description: Female, athymic nude mice, 18-22 g, were given total body irradiation (400 rads). […] Three days after irradiation, mice were injected subcutaneously with 107 RL cells in […] ™ (Collaborative Biomedical Products, Belford, Mass., diluted 1:1 in RPMI medium) in the dorsal, right flank. […] The initial day of drug administration was considered day 1. Two additional doses were given on days 5 and 9 (treatment=q4Dx3). […] Tumors were measured at least once a week and calculated as tumor mass (g)=0.5 (tumor width/2) (tumor length). Group means SEM were calculated and compared to the vehicle-treated group for statistical significance using multiple T-tests. Group means were recorded up to 50 days or until either a mouse died (which disrupted the group mean) or the tumor grew too large (>3.5 g) and the mouse had to be euthanized. […] The number of tumor free mice at the end of each study for each treatment group was also recorded. […]
Individual components of the CHOP regimen were used at their respective maximum tolerated doses assessed in nude mice (data not reported) and were as follows: Cyclophosphamide (C) 40 mg/kg IP, doxorubicin (H) 3.3 mg/kg IP, vincristine (O) 0.5 mg/kg IP, and prednisone (P) 0.2 mg/kg PO. […]

CD22mFc = assay: BIACORE biosensor binding analysis of CMC-544 and G5/44; conditions: Table 3
Description: Biosensor analyses were carried out using a BIACORE™ 2000 (BIAcore AB, Uppsala, Sweden). CD22mFc was covalently immobilized on the N-hydroxysuccinimide-activated carboxymethyl dextran-coated biosensor chip (CM5) using a standard amine-coupling chemistry at a protein density of approximately 2000 resonance units. Samples of CMC-544 or G5/44 were diluted in the HBS buffer (10 mM HEPES, pH 7.4, containing 150 mM NaCl, 3 mM EDTA and 0.005% polysorbate 20 (v/v)) and injected in the concentration range of 1 to 100 nM over the CD22mFc-coated biosensor chip surface at a flow rate of 30 μl/min for 3 min to allow binding. After the binding phase, dissociation of the bound antibody was monitored by washing the chip with the HBS buffer over a 15 minute period. The antigenic surface was regenerated by washing the Biosensor chip with 15 μl of the regeneration buffer (10 mM NaOH and 200 mM NaCl) for 30 seconds, followed by a stabilization time of 2 minutes before the next cycle. Kinetic constants were calculated by nonlinear least square regression analysis using a 1:1 Langmuir binding curve fitting model and BIAevaluation program (version 3.0, BIAcore). The antigen binding of CMC-544 was evaluated by surface plasmon resonance analysis using CD22mFc covalently immobilized on a biosensor chip.

RL = assay: In vitro growth inhibition of RL B-cell lymphoma line; format: cell-based
Source text: (§4) The effect of CMC-544 made by using CMA-676 and CMC-544 processes on the in vitro growth of CD22^+ B-Cell lymphoma cell lines, RL, Daudi, Raji and Ramos, were compared. An isotype-matched calicheamicin conjugate targeted at human CD33 (CMA-676) was used to reflect antigen-non-specific effects of the conjugate. […] CD22-mediated delivery of calicheamicin to the CD22^+ cells was at least 10 times more efficient in killing the target cells than the unconjugated drug itself. […] It is apparent from Table 4 that conjugate made by the CMC-544 conjugation process can generate equivalent cytotoxic effect at lower antibody concentrations than conjugate made by the CMA-676 conjugation process.

Daudi = assay: In vitro growth inhibition of Daudi B-cell lymphoma line; format: cell-based; conditions: Daudi #1
Source text: as §4

Raji = assay: In vitro growth inhibition of Raji B-cell lymphoma line; format: cell-based
Source text: as §4

Ramos = assay: In vitro growth inhibition of Ramos B-cell lymphoma line; format: cell-based, human
Source text: as §4

[5] = Table 8, conjugates 160 μg/kg, rituximab 20 mg/kg ip Q4Dx3 from day 9
[6] = Table 9, high dose: CMC-544 160 μg/kg, rituximab 20 mg/kg, alone or combined
[7] = Table 10, high dose: CMC-544 160 μg/kg, rituximab 20 mg/kg, alone or combined
[8] = Table 10, low dose: CMC-544 40 μg/kg, rituximab 5 mg/kg, alone or combined
[9] = Table 10, medium dose: CMC-544 80 μg/kg, rituximab 10 mg/kg, alone or combined

CD22mFc, sequence (P20273 20-240 limits assumed): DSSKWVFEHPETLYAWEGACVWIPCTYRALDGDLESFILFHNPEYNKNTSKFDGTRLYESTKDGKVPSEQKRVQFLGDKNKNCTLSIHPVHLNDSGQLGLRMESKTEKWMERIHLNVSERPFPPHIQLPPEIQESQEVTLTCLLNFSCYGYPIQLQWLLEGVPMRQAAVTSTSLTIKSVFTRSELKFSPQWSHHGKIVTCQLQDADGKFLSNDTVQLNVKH

CMC-544: G5/44-NAc-gamma-calicheamicin DMH AcBut conjugate; monomeric calicheamicin derivative/humanized anti-CD22 antibody (G5/44)
binding to HL-60 leukemia cells [1]: neither CMC-544 nor G5/44 demonstrated any binding
recognition of CD22 on B cells of different species (CD22 on B cells): specifically recognizes CD22 on human B cells, but not on murine, rat, canine, porcine or primate (cynomolgus and rhesus) B cells
inhibition of growth of RAMOS B-cell lymphoma (RAMOS B-cell lymphoma; FIG. 18): efficacious in inhibiting, in a dose-dependent manner, the growth of RAMOS B-cell lymphoma
tumor regression at higher doses (RL NHL xenografts; 60-320 μg/kg): almost complete regression of RL lymphoma
minimally effective dose in the RL lymphoma model (RL NHL xenografts; based on calicheamicin content, from statistical analyses of three studies): 0.02 mg/kg
% T/C (RL NHL xenografts; calicheamicin dose 20 μg/kg): 43%
MEAN RELATIVE TUMOR GROWTH (RL NHL xenografts; calicheamicin dose 20 μg/kg): 2.87
% T/C (RL NHL xenografts; calicheamicin dose 40 μg/kg): 20%
MEAN RELATIVE TUMOR GROWTH (RL NHL xenografts; calicheamicin dose 40 μg/kg): 1.34
% T/C (RL NHL xenografts; calicheamicin dose 60 μg/kg): 9%
MEAN RELATIVE TUMOR GROWTH (RL NHL xenografts; calicheamicin dose 60 μg/kg): 0.58
% T/C (RL NHL xenografts; calicheamicin dose 80 μg/kg): 8%
MEAN RELATIVE TUMOR GROWTH (RL NHL xenografts; calicheamicin dose 80 μg/kg): 0.54
% T/C (RL NHL xenografts; calicheamicin dose 160 μg/kg): 3%
MEAN RELATIVE TUMOR GROWTH (RL NHL xenografts; calicheamicin dose 160 μg/kg): 0.21
% T/C (RL NHL xenografts; calicheamicin dose 320 μg/kg): 1%
MEAN RELATIVE TUMOR GROWTH (RL NHL xenografts; calicheamicin dose 320 μg/kg): 0.10
deaths (RL NHL xenografts; three independent experiments, 20-320 μg/kg): no deaths
tumor-free mice by day 20 (large RAMOS lymphoma; 160 μg/kg conjugated calicheamicin ip, tumors staged to 1.5 or 2 g): 3 out of 4
re-growth of regressed lymphoma up to day 50 (large RAMOS lymphoma; 160 μg/kg ip): did not indicate any re-growth
mice with re-growth of the tumors by day 45 (RL lymphoma; 160 μg/kg ip): 2
regression of the pre-existing mass of RL lymphoma (RL lymphoma; 160 μg/kg ip, within 30 days): > 90%
response of re-grown RL tumors to a second course (RL lymphoma; studies not shown): still responsive to the second course of the treatment with CMC-544 and regressed again
median inhibitory concentration (IC50) (Ramos cells [2]): 0.029 ng/mL
Average Survival Time (Ramos cells [3]): 41 days and 41.0 days
Maximum Survival Time (Ramos cells [3]): 60.0 days
Median Survival Time (Ramos cells [3]): 38.0 days
Minimum Survival Time (Ramos cells [3]): 32.0 days
mice still surviving at 125 days (Ramos cells [4]; CMC-544 40 μg/kg): 90%
Average Survival Time (Ramos cells [4]; [5]): 83.5 days
Median Survival Time (Ramos cells [4]; [5]): 76.5 days
Minimum Survival Time (Ramos cells [4]; [5]): 34.0 days
Maximum Survival Time (Ramos cells [4]; [6]): >100.0 days
Median Survival Time (Ramos cells [4]; [6]): 34.5 days
Minimum Survival Time (Ramos cells [4]; [6]): 27.0 days
Average Survival Time (Ramos cells [4]; Table 9 initial combination study, high dose: CMC-544 160 μg/kg, rituximab 20 mg/kg, alone or combined): 58.5 days
Average Survival Time (Ramos cells [4]; [7]): 85 days and 85.22 days
Maximum Survival Time (Ramos cells [4]; [7]): 125.00 days
Median Survival Time (Ramos cells [4]; [7]): 82.00 days
Minimum Survival Time (Ramos cells [4]; [7]): 35.00 days
Average Survival Time (Ramos cells [4]; [8]): 118.90 days
Maximum Survival Time (Ramos cells [4]; [8]): 125.00 days
Median Survival Time (Ramos cells [4]; [8]): 125.00 days
Minimum Survival Time (Ramos cells [4]; [8]): 64.00 days
Average Survival Time (Ramos cells [4]; [9]): 118.22 days
Maximum Survival Time (Ramos cells [4]; [9]): 125.00 days
Median Survival Time (Ramos cells [4]; [9]): 125.00 days
Minimum Survival Time (Ramos cells [4]; [9]): 71.00 days
antitumor effect (RL B lymphoma xenograft): complete and lasted throughout the experimental period

G5/44: CDR-grafted humanized antibody directed against cell surface antigen CD22, IgG4 isotype
KA (CD22mFc): 7.9e+09 M⁻¹
Ka (CD22mFc): 220000 M⁻¹ s⁻¹
Kd (CD22mFc): 2.8e-05 s⁻¹
binding to HL-60 leukemia cells [1]: neither CMC-544 nor G5/44 demonstrated any binding
IC50 of antibody (RL; RL #1): >100 µg/mL
IC50 of antibody (RL; RL #2): >100 µg/mL
IC50 of antibody (Daudi): >100 µg/mL
IC50 of antibody (Raji; Raji #1): >100 µg/mL
IC50 of antibody (Raji; Raji #2): >100 µg/mL
IC50 of antibody (Ramos; Ramos #1): >100 µg/mL
IC50 of antibody (Ramos; Ramos #2): >100 µg/mL
effect of unconjugated antibody on tumor growth (RAMOS B-cell lymphoma; 10 mg/kg intraperitoneal, subcutaneous xenografts): no effect on tumor growth
